Measurements as given in ChEMBL document CHEMBL1250443, “Microarray-based method for monitoring yeast overexpression strains reveals small-molecule targets in TOR pathway” (Nat Chem Biol, 2006).

Assays:
[1] = Inhibition of TOR signaling in wild-type Saccharomyces cerevisiae transformed with overexpression plasmids assessed as decreased YDL186W gene expression by microarray
[2] = Inhibition of TOR signaling in wild-type Saccharomyces cerevisiae transformed with overexpression plasmids assessed as decreased FUS3 gene expression by microarray
[3] = Inhibition of TOR signaling in wild-type Saccharomyces cerevisiae transformed with overexpression plasmids assessed as decreased SHO1 gene expression by microarray
[4] = Inhibition of TOR signaling in wild-type Saccharomyces cerevisiae transformed with overexpression plasmids assessed as decreased OLE1 gene expression by microarray
[5] = Inhibition of TOR signaling in wild-type Saccharomyces cerevisiae transformed with overexpression plasmids assessed as decreased CAJ1 gene expression by microarray
[6] = Inhibition of TOR signaling in wild-type Saccharomyces cerevisiae transformed with overexpression plasmids assessed as decreased REH1 gene expression by microarray
[7] = Inhibition of TOR signaling in wild-type Saccharomyces cerevisiae transformed with overexpression plasmids assessed as increased DSL1 gene expression by microarray
[8] = tested on: Saccharomyces cerevisiae; experiment: Increase of YDR514C gene expression in wild-type Saccharomyces cerevisiae transformed with overexpression plasmids by microarray; format: functional
[9] = Inhibition of TOR signaling in wild-type Saccharomyces cerevisiae transformed with overexpression plasmids assessed as decreased FRE5 gene expression by microarray
[10] = Inhibition of TOR signaling in wild-type Saccharomyces cerevisiae transformed with overexpression plasmids assessed as increased SRP72 gene expression by microarray
[11] = Inhibition of TOR signaling in wild-type Saccharomyces cerevisiae transformed with overexpression plasmids assessed as decreased APM2 gene expression by microarray
[12] = Inhibition of TOR signaling in wild-type Saccharomyces cerevisiae transformed with overexpression plasmids assessed as decreased YKL059C gene expression by microarray
[13] = Inhibition of TOR signaling in wild-type Saccharomyces cerevisiae transformed with overexpression plasmids assessed as increased BRE1 gene expression by microarray
[14] = tested on: Saccharomyces cerevisiae; experiment: Increase of GUF1 gene expression in wild-type Saccharomyces cerevisiae transformed with overexpression plasmids by microarray; format: functional
[15] = Inhibition of TOR signaling in wild-type Saccharomyces cerevisiae transformed with overexpression plasmids assessed as increased YFR044C gene expression by microarray
[16] = Inhibition of TOR signaling in wild-type Saccharomyces cerevisiae transformed with overexpression plasmids assessed as increased PDR17 gene expression by microarray
[17] = Inhibition of TOR signaling in wild-type Saccharomyces cerevisiae transformed with overexpression plasmids assessed as increased APN2 gene expression by microarray
[18] = Inhibition of TOR signaling in wild-type Saccharomyces cerevisiae transformed with overexpression plasmids assessed as increased NCL1 gene expression by microarray
[19] = Inhibition of TOR signaling in wild-type Saccharomyces cerevisiae transformed with overexpression plasmids assessed as decreased TUL1 gene expression by microarray
[20] = Inhibition of TOR signaling in wild-type Saccharomyces cerevisiae transformed with overexpression plasmids assessed as decreased YLR224W gene expression by microarray
[21] = tested on: Saccharomyces cerevisiae; experiment: Decrease of FET4 gene expression in wild-type Saccharomyces cerevisiae transformed with overexpression plasmids by microarray; format: functional
[22] = Inhibition of TOR signaling in wild-type Saccharomyces cerevisiae transformed with overexpression plasmids assessed as increased RTT106 gene expression by microarray
[23] = Inhibition of TOR signaling in wild-type Saccharomyces cerevisiae transformed with overexpression plasmids assessed as decreased HMI1 gene expression by microarray
[24] = Inhibition of TOR signaling in wild-type Saccharomyces cerevisiae transformed with overexpression plasmids assessed as decreased DCR2 gene expression by microarray
[25] = Inhibition of TOR signaling in wild-type Saccharomyces cerevisiae transformed with overexpression plasmids assessed as increased YOL157C gene expression by microarray
[26] = Inhibition of TOR signaling in wild-type Saccharomyces cerevisiae transformed with overexpression plasmids assessed as decreased YNL305C gene expression by microarray
[27] = Inhibition of TOR signaling in wild-type Saccharomyces cerevisiae transformed with overexpression plasmids assessed as increased YOR042W gene expression by microarray
[28] = Inhibition of TOR signaling in wild-type Saccharomyces cerevisiae transformed with overexpression plasmids assessed as decreased SUE1 gene expression by microarray
[29] = Inhibition of TOR signaling in wild-type Saccharomyces cerevisiae transformed with overexpression plasmids assessed as decreased EFR3 gene expression by microarray
[30] = tested on: Saccharomyces cerevisiae; experiment: Decrease of YKR75C gene expression in wild-type Saccharomyces cerevisiae transformed with overexpression plasmids by microarray; format: functional
[31] = Inhibition of TOR signaling in wild-type Saccharomyces cerevisiae transformed with overexpression plasmids assessed as decreased RTT101 gene expression by microarray
[32] = Inhibition of TOR signaling in wild-type Saccharomyces cerevisiae transformed with overexpression plasmids assessed as increased YOR220W gene expression by microarray
[33] = Inhibition of TOR signaling in wild-type Saccharomyces cerevisiae transformed with overexpression plasmids assessed as increased CDC33 gene expression by microarray
[34] = tested on: Saccharomyces cerevisiae; experiment: Decrease of RIM11 gene expression in wild-type Saccharomyces cerevisiae transformed with overexpression plasmids by microarray; format: functional
[35] = Inhibition of TOR signaling in wild-type Saccharomyces cerevisiae transformed with overexpression plasmids assessed as increased ZDS2 gene expression by microarray
[36] = Inhibition of TOR signaling in wild-type Saccharomyces cerevisiae transformed with overexpression plasmids assessed as increased THI21 gene expression by microarray
[37] = tested on: Saccharomyces cerevisiae; experiment: Decrease of SGN1 gene expression in wild-type Saccharomyces cerevisiae transformed with overexpression plasmids by microarray; format: functional
[38] = Inhibition of TOR signaling in wild-type Saccharomyces cerevisiae transformed with overexpression plasmids assessed as decreased YPT11 gene expression by microarray
[39] = Inhibition of TOR signaling in wild-type Saccharomyces cerevisiae transformed with overexpression plasmids assessed as increased HCA4 gene expression by microarray
[40] = Inhibition of TOR signaling in wild-type Saccharomyces cerevisiae transformed with overexpression plasmids assessed as increased NAM7 gene expression by microarray
[41] = Inhibition of TOR signaling in wild-type Saccharomyces cerevisiae transformed with overexpression plasmids assessed as increased FBP1 gene expression by microarray
[42] = Inhibition of TOR signaling in wild-type Saccharomyces cerevisiae transformed with overexpression plasmids assessed as decreased HSD1 gene expression by microarray
[43] = Inhibition of TOR signaling in wild-type Saccharomyces cerevisiae transformed with overexpression plasmids assessed as increased NEM1 gene expression by microarray
[44] = Inhibition of TOR signaling in wild-type Saccharomyces cerevisiae transformed with overexpression plasmids assessed as increased YFL030W gene expression by microarray
[45] = Inhibition of TOR signaling in wild-type Saccharomyces cerevisiae transformed with overexpression plasmids assessed as decreased YPL264C gene expression by microarray

fold change (FC) [1]: -3.3 | fold change (FC) [2]: -3.2 | fold change (FC) [3]: -4.4 | fold change (FC) [4]: -3.2 | fold change (FC) [5]: -5.6 | fold change (FC) [6]: -2.2 | fold change (FC) [7]: 2.4 | fold change (FC) [9]: -8.1 | fold change (FC) [10]: 3.4 | fold change (FC) [11]: -2.4 | fold change (FC) [12]: -2.3 | fold change (FC) [13]: 4.4 | fold change (FC) [15]: 4.7 | fold change (FC) [16]: 2.9 | fold change (FC) [17]: 2.1 | fold change (FC) [18]: 7.4 | fold change (FC) [19]: -3.7 | fold change (FC) [20]: -2.9 | fold change (FC) [22]: 8.3 | fold change (FC) [23]: -2.3 | fold change (FC) [24]: -5.9 | fold change (FC) [25]: 7.1 | fold change (FC) [26]: -2.5 | fold change (FC) [27]: 2.7 | fold change (FC) [28]: -2 | fold change (FC) [29]: -3.1 | fold change (FC) [31]: -3.3 | fold change (FC) [32]: 3.2 | fold change (FC) [33]: 2 | fold change (FC) [35]: 13.6 | fold change (FC) [36]: 2.2 | fold change (FC) [38]: -3.1 | fold change (FC) [39]: 2.9 | fold change (FC) [40]: 6.4 | fold change (FC) [41]: 2.1 | fold change (FC) [42]: -4.5 | fold change (FC) [43]: 2.2 | fold change (FC) [44]: 3.2 | fold change (FC) [45]: -3.2
SMILES: CO[C@H]1C[C@@H]2CC[C@@H](C)[C@@](O)(O2)C(=O)C(=O)N2CCCC[C@H]2C(=O)O[C@H]([C@H](C)C[C@@H]2CC[C@@H](O)[C@H](OC)C2)CC(=O)[C@H](C)/C=C(\C)[C@@H](O)[C@@H](OC)C(=O)[C@H](C)C[C@H](C)/C=C/C=C/C=C/1C [SIROLIMUS]
fold change (FC) [8]: -3.1 | fold change (FC) [14]: -3.1 | fold change (FC) [21]: -5.1 | fold change (FC) [30]: -2.5 | fold change (FC) [34]: 2.9 | fold change (FC) [37]: -2.1
